Experiment [1] deals with GCN2 kinase (Homo sapiens, UniProt Q9P2K8). Kind of experiment: GCN2 enzyme inhibition assay (Transcreener ADP2 fluorescence polarization). The class given is biochemical. The conditions noted are these: compounds of Formula II; 280 μM ATP, 4 nM GCN2 kinase. Summed up: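 Human GCN2 (4 nM) preincubated 10 min with compound (0–8 μM) and 200 μM (RS)7 peptide in Tris-HCl pH 7.5, NaCl, MgCl2, DTT. Reaction started with 280 μM ATP, run 1 h at 25 °C. ADP detected by Transcreener fluorescence polarization. IC50 and Ki(app) fitted by tight-binding algorithm.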
GCN2 kinase, sequence (Q9P2K8 whole entry): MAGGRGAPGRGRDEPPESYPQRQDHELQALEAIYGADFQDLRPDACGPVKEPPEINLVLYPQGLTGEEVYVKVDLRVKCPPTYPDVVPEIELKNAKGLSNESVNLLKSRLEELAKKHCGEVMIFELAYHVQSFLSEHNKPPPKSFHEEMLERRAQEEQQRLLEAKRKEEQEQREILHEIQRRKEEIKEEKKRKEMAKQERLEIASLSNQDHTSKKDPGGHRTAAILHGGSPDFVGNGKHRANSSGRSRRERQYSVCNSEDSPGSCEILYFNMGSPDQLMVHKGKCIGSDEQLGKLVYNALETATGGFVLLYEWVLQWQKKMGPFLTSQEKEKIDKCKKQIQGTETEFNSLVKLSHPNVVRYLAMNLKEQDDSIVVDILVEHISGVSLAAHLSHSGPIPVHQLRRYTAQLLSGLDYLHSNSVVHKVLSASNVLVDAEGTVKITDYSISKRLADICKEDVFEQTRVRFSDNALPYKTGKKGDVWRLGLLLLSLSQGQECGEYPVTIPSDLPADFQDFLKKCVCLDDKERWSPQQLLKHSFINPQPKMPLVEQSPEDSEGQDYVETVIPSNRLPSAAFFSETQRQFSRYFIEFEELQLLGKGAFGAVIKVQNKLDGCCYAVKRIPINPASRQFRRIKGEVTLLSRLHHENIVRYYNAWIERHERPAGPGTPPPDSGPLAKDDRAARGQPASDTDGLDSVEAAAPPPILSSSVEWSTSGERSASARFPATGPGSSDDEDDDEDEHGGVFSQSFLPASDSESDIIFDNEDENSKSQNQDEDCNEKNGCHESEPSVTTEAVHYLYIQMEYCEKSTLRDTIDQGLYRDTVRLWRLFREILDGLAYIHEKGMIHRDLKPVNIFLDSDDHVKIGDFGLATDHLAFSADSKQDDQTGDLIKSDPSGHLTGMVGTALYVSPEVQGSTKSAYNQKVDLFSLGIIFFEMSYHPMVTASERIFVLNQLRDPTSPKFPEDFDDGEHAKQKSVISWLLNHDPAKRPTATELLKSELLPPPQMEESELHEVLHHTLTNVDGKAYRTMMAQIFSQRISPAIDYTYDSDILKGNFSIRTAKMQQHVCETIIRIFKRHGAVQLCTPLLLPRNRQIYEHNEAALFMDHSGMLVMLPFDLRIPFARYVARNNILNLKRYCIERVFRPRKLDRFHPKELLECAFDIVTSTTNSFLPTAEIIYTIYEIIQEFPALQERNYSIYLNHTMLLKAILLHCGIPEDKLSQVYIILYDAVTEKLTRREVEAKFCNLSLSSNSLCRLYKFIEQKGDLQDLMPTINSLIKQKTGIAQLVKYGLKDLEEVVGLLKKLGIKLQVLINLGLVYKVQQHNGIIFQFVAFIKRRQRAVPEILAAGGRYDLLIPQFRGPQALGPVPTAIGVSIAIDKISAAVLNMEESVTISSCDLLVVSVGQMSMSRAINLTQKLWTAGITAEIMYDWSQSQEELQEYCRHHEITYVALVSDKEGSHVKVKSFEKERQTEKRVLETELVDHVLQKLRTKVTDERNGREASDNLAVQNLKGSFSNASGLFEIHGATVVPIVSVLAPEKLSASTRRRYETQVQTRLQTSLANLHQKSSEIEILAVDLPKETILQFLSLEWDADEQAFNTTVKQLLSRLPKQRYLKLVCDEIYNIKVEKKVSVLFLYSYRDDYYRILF
A general note: In fluorescence polarisation assays a small probe gives low polarisation when free and higher when bound to something large.

For experiment [2], the target named is intracellular GCN2 (phosphorylation of the GCN2 substrate eIF2α) (Homo sapiens, UniProt Q9P2K8). The experiment can be described thus: GCN2 cellular inhibition assay (AlphaScreen SureFire P-eIF2α Ser51, borrelidin-treated U2OS cells). Type of experiment: cell-based. As to conditions: compounds of Formula II; biomarker assay, phosphorylated eIF2α Ser51 in borrelidin-treated U2OS cells. The procedure, abridged:
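First, U2OS cells are plated and left overnight at 37 °C. Next, compounds (from 40 μM final, 4-fold steps) and 10 μM borrelidin are added for 1 h, cells lysed, and phospho-Ser51 eIF2α detected by AlphaScreen bead sandwich. Inhibition is computed versus borrelidin-only wells.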
(In general: Alpha assays give light when donor and acceptor beads are brought close together.)

pIC50, pKi: −log10 of the molar value. A value given as a limit tells only on which side of the number the result lay.

intracellular GCN2 (phosphorylation of the GCN2 substrate eIF2α), sequence (Q9P2K8 whole entry): as above

Usually pKi stands for the Ki on a negative log10 scale, so that one unit is a factor of ten. Lower therefore signals a large Ki. In general, pIC50 refers to the negative decadic logarithm of the IC50, by convention in mol/L. A lower pIC50 goes with a high IC50. In experiment [1], `CC1(NS(C)(=O)=O)CCCN(c2cc(-c3cnc4ccc(C(F)F)nn34)ncn2)C1` (stereo not drawn) [II-445, N-(1-(6-(6-(Difluoromethyl)imidazo[1,2-b]pyridazin-3-yl)pyrimidin-4-yl)-3-methylpiperidin-3-yl)methanesulfonamide] had a pKi of 6.00 to 8.00. Also, in experiment [2], the pIC50 is under 5.30.
Consider `CC1(NS(C)(=O)=O)CCCN(c2cc(-c3cnc4ccc(C(F)F)nn34)ncn2)C1` (stereo not drawn) [II-446, N-(1-(6-(6-(Difluoromethyl)imidazo[1,2-b]pyridazin-3-yl)pyrimidin-4-yl)-3-methylpiperidin-3-yl)methanesulfonamide], for which the pKi in experiment [1] is 6.00 to 8.00. In addition, in experiment [2], the negative logarithm of the IC50 (pIC50) was under 5.30.
Take `CS(=O)(=O)NCC12CC1CN(c1cc(-c3cnc4ccc(C(F)F)nn34)ncn1)C2` (stereo not drawn) [II-447, N-((3-(6-(6-(Difluoromethyl)imidazo[1,2-b]pyridazin-3-yl)pyrimidin-4-yl)-3-azabicyclo[3.1.0]hexan-1-yl)methyl)methanesulfonamide]: the negative-log Ki (pKi) in experiment [1] was 6.00 to 8.00. In experiment [2], this compound gave a pIC50 of 5.30 to 6.30.
For `CC1C(CNS(C)(=O)=O)N(C)C(C)CN1c1cc(-c2cnc3ccc(C(F)F)nn23)ncn1` (stereo not drawn) [II-448, N-((4-(6-(6-(Difluoromethyl)imidazo[1,2-b]pyridazin-3-yl)pyrimidin-4-yl)-1,3,6-trimethylpiperazin-2-yl)methyl)methanesulfonamide] the same measures were over 8.00 and over 6.30.
As for `C[C@@H]1C[C@H](NS(C)(=O)=O)CN(c2cc(-c3cnc4ccc(C(F)F)nn34)ncn2)C1` [II-449, N-((3S,5R)-1-(6-(6-(Difluoromethyl)imidazo[1,2-b]pyridazin-3-yl)pyrimidin-4-yl)-5-methylpiperidin-3-yl)methanesulfonamide], the pKi in experiment [1] was over 8.00. Moreover, the pIC50 in experiment [2] was over 6.30.
Turning to `CS(=O)(=O)NCC1CN(c2cc(-c3cnc4ccc(C(F)F)nn34)ncn2)CCN1` (stereo not drawn) [II-450, N-((4-(6-(6-(Difluoromethyl)imidazo[1,2-b]pyridazin-3-yl)pyrimidin-4-yl)piperazin-2-yl)methyl)methanesulfonamide], the pKi in experiment [1] is 6.00 to 8.00. The compound further had a pIC50 in experiment [2] of 5.30 to 6.30.
For `FC(F)c1ccc2ncc(-c3cc(N4CC5CC(C4)O5)ncn3)n2n1` [II-451, 3-(6-(6-(Difluoromethyl)imidazo[1,2-b]pyridazin-3-yl)pyrimidin-4-yl)-6-oxa-3-azabicyclo[3.1.1]heptane] the same measures were 6.00 to 8.00 and 5.30 to 6.30.
Compound `CN1CCN(c2cc(-c3cnc4ccc(C(F)F)nn34)ncn2)CC12CN(S(C)(=O)=O)C2` [II-452, 8-(6-(6-(Difluoromethyl)imidazo[1,2-b]pyridazin-3-yl)pyrimidin-4-yl)-5-methyl-2-(methylsulfonyl)-2,5,8-triazaspiro[3.5]nonane] gave a pKi in experiment [1] of 6.00 to 8.00. The negative-log IC50 (pIC50) in experiment [2] is 5.30 to 6.30.
`CN1CCN(c2cc(-c3cnc4ccc(C(F)F)nn34)ncn2)CC1C(N)=O` (stereo not drawn) [II-453, 4-(6-(6-(Difluoromethyl)imidazo[1,2-b]pyridazin-3-yl)pyrimidin-4-yl)-1-methylpiperazine-2-carboxamide] showed a negative-log Ki (pKi) in experiment [1] of 6.00 to 8.00. In addition, the negative-log IC50 (pIC50) in experiment [2] was under 5.30.
On to `OC1([C@@H]2CN(c3cc(-c4cnc5ccc(C(F)F)nn45)ncn3)CCN2)CC1` [II-454, (S)-1-(4-(6-(6-(Difluoromethyl)imidazo[1,2-b]pyridazin-3-yl)pyrimidin-4-yl)piperazin-2-yl)cyclopropan-1-ol], for which the pKi in experiment [1] was 6.00 to 8.00. This compound had a pIC50 in experiment [2] of under 5.30.
Consider `CN(C1CCCN(c2cc(-c3cnc4ccc(C(F)F)nn34)ncn2)C1)S(C)(=O)=O` (stereo not drawn) [II-455, N-(1-(6-(6-(Difluoromethyl)imidazo[1,2-b]pyridazin-3-yl)pyrimidin-4-yl)piperidin-3-yl)-N-methylmethanesulfonamide], for which the pKi in experiment [1] was 6.00 to 8.00. Moreover, the pIC50 in experiment [2] is 5.30 to 6.30.
Compound `CN(C)CC(=O)N(CC1CCCN(c2cc(-c3cnc4ccc(C(F)F)nn34)ncn2)C1)S(C)(=O)=O` (stereo not drawn) [II-456, N-((1-(6-(6-(Difluoromethyl)imidazo[1,2-b]pyridazin-3-yl)pyrimidin-4-yl)piperidin-3-yl)methyl)-2-(dimethylamino)-N-(methylsulfonyl)acetamide] gave a pKi in experiment [1] of 6.00 to 8.00. In experiment [2], this compound showed a negative-log IC50 (pIC50) of over 6.30.
In experiment [1], `CC1(C)COC(CNS(C)(=O)=O)CN1c1cc(-c2cnc3ccc(C(F)F)nn23)ncn1` (stereo not drawn) [II-457, N-((4-(6-(6-(Difluoromethyl)imidazo[1,2-b]pyridazin-3-yl)pyrimidin-4-yl)-5,5-dimethylmorpholin-2-yl)methyl)methanesulfonamide] showed a negative logarithm of the Ki (pKi) of 6.00 to 8.00. In experiment [2], this compound gave a pIC50 of 5.30 to 6.30.
For `CN1CCN(c2cc(-c3cnc4ccc(C(F)F)nn34)ncn2)C[C@H]1C1(O)CC1` [II-459, (S)-1-(4-(6-(6-(Difluoromethyl)imidazo[1,2-b]pyridazin-3-yl)pyrimidin-4-yl)-1-methylpiperazin-2-yl)cyclopropan-1-ol], in experiment [1], the pKi was under 6.00. This compound gave a negative logarithm of the IC50 (pIC50) in experiment [2] of under 5.30.
`CS(=O)(=O)NC(=O)C1CCCN(c2cc(-c3cnc4ccc(C(F)F)nn34)ncn2)C1` (stereo not drawn) [II-460, 1-(6-(6-(Difluoromethyl)imidazo[1,2-b]pyridazin-3-yl)pyrimidin-4-yl)-N-(methylsulfonyl)piperidine-3-carboxamide] gave a pKi in experiment [1] of 6.00 to 8.00. For the same compound, the pIC50 in experiment [2] is under 5.30.
On to `CC1C(CNS(C)(=O)=O)C(F)(F)C(C)CN1c1cc(-c2cnc3ccc(C(F)F)nn23)ncn1` (stereo not drawn) [II-461, N-((1-(6-(6-(Difluoromethyl)imidazo[1,2-b]pyridazin-3-yl)pyrimidin-4-yl)-4,4-difluoro-2,5-dimethylpiperidin-3-yl)methyl)methanesulfonamide], for which the negative logarithm of the Ki (pKi) in experiment [1] was over 8.00. For the same compound, the pIC50 in experiment [2] was 5.30 to 6.30.
Take `CC1C(CNS(C)(=O)=O)C(F)(F)C(C)CN1c1cc(-c2cnc3ccc(C(F)F)nn23)ncn1` (stereo not drawn) [II-462, N-((1-(6-(6-(Difluoromethyl)imidazo[1,2-b]pyridazin-3-yl)pyrimidin-4-yl)-4,4-difluoro-2,5-dimethylpiperidin-3-yl)methyl)methanesulfonamide]: the negative logarithm of the Ki (pKi) in experiment [1] was over 8.00. In addition, in experiment [2], the pIC50 is over 6.30.
With `CC1C(CNS(C)(=O)=O)N(C2CC2)CCN1c1cc(-c2cnc3ccc(C(F)F)nn23)ncn1` (stereo not drawn) [II-463, N-((1-Cyclopropyl-4-(6-(6-(difluoromethyl)imidazo[1,2-b]pyridazin-3-yl)pyrimidin-4-yl)-3-methylpiperazin-2-yl)methyl)methanesulfonamide], the negative logarithm of the Ki (pKi) in experiment [1] is over 8.00. Also, the pIC50 in experiment [2] is over 6.30.
In the same order, the values of `CC(NS(C)(=O)=O)C1CN(c2cc(-c3cnc4ccc(C(F)F)nn34)ncn2)CCN1` (stereo not drawn) [II-465, N-(1-(4-(6-(6-(Difluoromethyl)imidazo[1,2-b]pyridazin-3-yl)pyrimidin-4-yl)piperazin-2-yl)ethyl)methanesulfonamide] are 6.00 to 8.00 and 5.30 to 6.30.
In the same order, the values of `CC1C(CNS(C)(=O)=O)NCCN1c1cc(-c2cnc3ccc(C(F)(F)F)nn23)ncn1` (stereo not drawn) [II-466, N-((3-Methyl-4-(6-(6-(trifluoromethyl)imidazo[1,2-b]pyridazin-3-yl)pyrimidin-4-yl)piperazin-2-yl)methyl)methanesulfonamide] are over 8.00 and over 6.30.
In the case of `CC(NS(C)(=O)=O)C1CN(c2cc(-c3cnc4ccc(C(F)F)nn34)ncn2)CCN1C` (stereo not drawn) [II-473, N-(1-(4-(6-(6-(Difluoromethyl)imidazo[1,2-b]pyridazin-3-yl)pyrimidin-4-yl)-1-methylpiperazin-2-yl)ethyl)methanesulfonamide], in experiment [1], the pKi was 6.00 to 8.00. In addition, the negative logarithm of the IC50 (pIC50) in experiment [2] was under 5.30.
`CC(NS(C)(=O)=O)C1CN(c2cc(-c3cnc4ccc(C(F)F)nn34)ncn2)CCN1C` (stereo not drawn) [II-474, N-(1-(4-(6-(6-(Difluoromethyl)imidazo[1,2-b]pyridazin-3-yl)pyrimidin-4-yl)-1-methylpiperazin-2-yl)ethyl)methanesulfonamide]: the pKi in experiment [1] was 6.00 to 8.00. For the same compound, in experiment [2], the pIC50 is 5.30 to 6.30.
In experiment [1], `CC1C(CNS(C)(=O)=O)C(F)(F)C(C)CN1c1cc(-c2cnc3ccc(C(F)F)nn23)ncn1` (stereo not drawn) [II-475, N-((1-(6-(6-(Difluoromethyl)imidazo[1,2-b]pyridazin-3-yl)pyrimidin-4-yl)-4,4-difluoro-2,5-dimethylpiperidin-3-yl)methyl)methanesulfonamide] showed a pKi of 6.00 to 8.00. The compound further gave a negative-log IC50 (pIC50) in experiment [2] of over 6.30.
`CC1C(CNS(C)(=O)=O)C(F)(F)C(C)CN1c1cc(-c2cnc3ccc(C(F)F)nn23)ncn1` (stereo not drawn) [II-476, N-((1-(6-(6-(Difluoromethyl)imidazo[1,2-b]pyridazin-3-yl)pyrimidin-4-yl)-4,4-difluoro-2,5-dimethylpiperidin-3-yl)methyl)methanesulfonamide] showed a pKi in experiment [1] of 6.00 to 8.00. For the same compound, the pIC50 in experiment [2] was 5.30 to 6.30.
`CC1C(C(N)=O)NCCN1c1cc(-c2cnc3ccc(C(F)F)nn23)ncn1` (stereo not drawn) [II-477, 4-(6-(6-(Difluoromethyl)imidazo[1,2-b]pyridazin-3-yl)pyrimidin-4-yl)-3-methylpiperazine-2-carboxamide] showed a pKi in experiment [1] of 6.00 to 8.00. Further, the negative-log IC50 (pIC50) in experiment [2] is 5.30 to 6.30.
In experiment [1], `CNS(=O)(=O)C1CCCN(c2cc(-c3cnc4ccc(C(F)F)nn34)ncn2)C1` (stereo not drawn) [II-480, 1-(6-(6-(Difluoromethyl)imidazo[1,2-b]pyridazin-3-yl)pyrimidin-4-yl)-N-methylpiperidine-3-sulfonamide] had a pKi of 6.00 to 8.00. The pIC50 in experiment [2] was under 5.30.
`CS(=O)(=O)NCC1COCCN(c2cc(-c3cnc4ccc(C(F)F)nn34)ncn2)C1` (stereo not drawn) [II-481, N-((4-(6-(6-(Difluoromethyl)imidazo[1,2-b]pyridazin-3-yl)pyrimidin-4-yl)-1,4-oxazepan-6-yl)methyl)methanesulfonamide] gave a pKi in experiment [1] of 6.00 to 8.00. For the same compound, in experiment [2], the negative logarithm of the IC50 (pIC50) was 5.30 to 6.30.
